Experimental data: patent US7858635B2 (priority 2005, dated 2010)
Like-named read-outs stand apart in the source and are kept apart here.

Assays:
[1] = target: T1, M4 muscarinic receptor (Homo sapiens, UniProt P08173); assay: Functional mobilization of intracellular calcium (FLIPR, Fluo-3), M4-CHO cells; type: cell-based; conditions: for Emax: 100% efficacy is the maximum response obtained with the Carbachol control, read-out: M4 Efficacy
T1 construct: expressed in transfected cells; host or cells: CHO cells (M4-CHO, under puromycin, zeocin and blasticidin selection)
T1 sequence (P08173 1-479): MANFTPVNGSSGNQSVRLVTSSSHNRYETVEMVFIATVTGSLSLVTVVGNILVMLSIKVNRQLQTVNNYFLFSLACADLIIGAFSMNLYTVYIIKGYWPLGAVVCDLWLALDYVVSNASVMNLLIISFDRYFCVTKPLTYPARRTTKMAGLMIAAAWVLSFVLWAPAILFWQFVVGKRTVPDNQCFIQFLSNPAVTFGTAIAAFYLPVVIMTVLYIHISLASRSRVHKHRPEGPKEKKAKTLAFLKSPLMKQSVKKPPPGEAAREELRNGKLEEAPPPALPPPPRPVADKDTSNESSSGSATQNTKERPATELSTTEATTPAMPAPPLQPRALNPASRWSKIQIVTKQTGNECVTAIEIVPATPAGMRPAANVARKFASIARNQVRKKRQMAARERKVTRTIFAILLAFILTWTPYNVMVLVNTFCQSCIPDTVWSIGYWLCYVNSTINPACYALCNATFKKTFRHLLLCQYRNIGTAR
In short: (§1)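 Intracellular calcium was tracked by fluorescence (488/540 nm) over 60 sec after compound addition to dye-loaded CHO cells expressing the receptor. Inhibitory activity used a 15 min pre-incubation before carbachol at the subtype EC80.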

[2] = target: T2, M1 muscarinic receptor (Homo sapiens, UniProt P11229); assay: Functional mobilization of intracellular calcium (FLIPR, Fluo-3), M1-CHO cells; type: cell-based; conditions: for Emax: 100% efficacy is the maximum response obtained with the Carbachol control, read-out: M1 Efficacy
T2 construct: expressed in transfected cells; host or cells: CHO cells (M1-CHO, under zeocin and G418 selection)
T2 sequence (P11229 1-460): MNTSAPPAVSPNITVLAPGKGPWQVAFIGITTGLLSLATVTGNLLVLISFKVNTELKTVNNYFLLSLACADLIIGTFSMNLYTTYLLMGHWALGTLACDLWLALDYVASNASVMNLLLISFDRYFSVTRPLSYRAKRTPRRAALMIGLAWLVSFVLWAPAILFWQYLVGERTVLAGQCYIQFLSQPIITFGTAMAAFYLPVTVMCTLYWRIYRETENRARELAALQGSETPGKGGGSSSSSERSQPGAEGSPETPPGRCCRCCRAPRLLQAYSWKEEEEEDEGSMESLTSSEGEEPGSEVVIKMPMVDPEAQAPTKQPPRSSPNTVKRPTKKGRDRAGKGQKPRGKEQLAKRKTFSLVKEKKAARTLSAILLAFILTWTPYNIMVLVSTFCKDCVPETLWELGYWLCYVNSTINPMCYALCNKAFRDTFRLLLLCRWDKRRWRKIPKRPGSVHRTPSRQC
In short: as §1

[3] = compound nos. 1-454, M4-CHO cells, calcium mobilization
[4] = compound nos. 1-454, M1-CHO cells, calcium mobilization

| SMILES | Emax ([1]; compound nos. 455-509) [%] | M4 Activity ([1]; compounds 455-509) | Emax ([2]; compound nos. 455-509) [%] | M1 Activity ([2]; compounds 455-509) | Emax ([1]; compound nos. 1-454) [%] | M4 Activity [1, 3] | Emax ([2]; compound nos. 1-454) [%] | M1 Activity [2, 4] | M4 Activity ([1]; compound nos. 1-454) | M1 Activity ([2]; compound nos. 1-454) |
| --- | --- | --- | --- | --- | --- | --- | --- | --- | --- | --- |
| CCc1nsc(N2CCC(N3CCC4(CC3)CN(C(C)=O)c3ccccc34)CC2)n1 [compound 498] | 25 to 100 | ++ (activity was measured to be between 2.0 μM and 5.0 μM) | > 100 | +++ (activity was measured to be less than or equal to 2.0 μM) |  |  |  |  |  |  |
| CCc1nsc(N2CCC(N3CCC4(CCN(C(C)=O)c5ccccc54)CC3)CC2)n1 [compound 489] | 25 to 100 | ++ (activity was measured to be between 2.0 μM and 5.0 μM) | > 100 | +++ (activity was measured to be less than or equal to 2.0 μM) |  |  |  |  |  |  |
| CCOC(=O)N1CCC(N2CCC3(CC2)CN(C(=O)c2ccccc2OC)c2ccc(F)cc23)CC1 [compound 262] |  |  |  |  | < 55 | + (activity was measured to be greater than or equal to 4.0 μM) | < 65 | + (activity was measured to be greater than or equal to 3.0 μM) |  |  |
| CCOC(=O)N1C2CCC1CC(N1CCC3(CC1)CN(S(C)(=O)=O)c1ccc(F)cc13)C2 (stereo not shown) [compound 103] |  |  |  |  | < 55 | ++ (activity was measured to be between 0.1 μM and 4.0 μM) | 65 to 85 | +++ (activity was measured to be less than or equal to 0.7 μM) |  |  |
| CCOC(=O)N1CCC(N2CCC3(CC2)CN(C(C)=O)c2ccc(-c4ccoc4)cc23)CC1 [compound 128] |  |  |  |  | < 55 | ++ (activity was measured to be between 0.1 μM and 4.0 μM) | < 65 | +++ (activity was measured to be less than or equal to 0.7 μM) |  |  |
| O=C(C1CCC1)N1CC2(CCN(C3CC4CCC(C3)N4C(=O)O[C@@H]3CCOC3)CC2)c2cc(F)ccc21 (stereo partly shown) [compound 69] |  |  |  |  | < 55 | ++ (activity was measured to be between 0.1 μM and 4.0 μM) | < 65 | ++ (activity was measured to be between 0.7 μM and 3.0 μM) |  |  |
| CN(C)C(=O)N1CC2(CCN(C3CCN(c4cccc(F)c4)CC3)CC2)c2cc(F)ccc21 [compound 438] |  |  |  |  | 55 to 70 |  | 65 to 85 |  | +++ (activity was measured to be less than or equal to 0.1 μM) | ++ (activity was measured to be between 0.7 μM and 3.0 μM) |
| O=C(O[C@@H]1CCOC1)N1CC2(CCN(C3CC4CCC(C3)N4C(=O)O[C@@H]3CCOC3)CC2)c2cc(F)ccc21 (stereo partly shown) [compound 243] |  |  |  |  | 55 to 70 | + (activity was measured to be greater than or equal to 4.0 μM) | 65 to 85 | +++ (activity was measured to be less than or equal to 0.7 μM) |  |  |
| c1ccc2c(c1)NCC21CCN(C2CCC3CCC2C3)CC1 (stereo not shown) [compound 244] |  |  |  |  | 55 to 70 | + (activity was measured to be greater than or equal to 4.0 μM) | 65 to 85 | ++ (activity was measured to be between 0.7 μM and 3.0 μM) |  |  |
| C#CCCOC(=O)N1CCC(N2CCC3(CC2)CN(C(=O)N(C)C)c2ccc(F)cc23)CC1 [compound 127] |  |  |  |  | < 55 | ++ (activity was measured to be between 0.1 μM and 4.0 μM) | 65 to 85 | +++ (activity was measured to be less than or equal to 0.7 μM) |  |  |
| CC(=O)N1CC2(CCN(CC3CCCOC3)CC2)c2cc(F)ccc21 (stereo not shown) [compound 75] |  |  |  |  | 55 to 70 | ++ (activity was measured to be between 0.1 μM and 4.0 μM) | < 65 | +++ (activity was measured to be less than or equal to 0.7 μM) |  |  |
| COCCOC(=O)N1CC2(CCN(C3CC4CCC(C3)N4C(=O)O[C@H]3CCOC3)CC2)c2cc(F)ccc21 (stereo partly shown) [compound 80] |  |  |  |  | < 55 | ++ (activity was measured to be between 0.1 μM and 4.0 μM) | < 65 | ++ (activity was measured to be between 0.7 μM and 3.0 μM) |  |  |
| CCOC(=O)N1C2CCC1CC(N1CCC3(CC1)C(=O)N(C)c1ccccc13)C2 (stereo not shown) [compound 149] |  |  |  |  | > 70 | + (activity was measured to be greater than or equal to 4.0 μM) | > 85 | +++ (activity was measured to be less than or equal to 0.7 μM) |  |  |
